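Interpolation was linear, between the two tested concentrations surrounding the appropriate level; five concentrations were tested over 48 hours in 96-well plates. Abbreviation: GI50, concentration required for 50% inhibition of growth. TGI: total growth inhibition.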
How the values were obtained:
Experiment in all cases: NCI tumour cell line growth inhibition, 48 h
SR leukemia = test system: SR leukemia
TK-10 renal = test system: TK-10 renal
MALME-3M melanoma = test system: MALME-3M melanoma
MCF7 breast = test system: MCF7 breast
LOX IMVI melanoma = test system: LOX IMVI melanoma
DU-145 prostate = test system: DU-145 prostate
SK-MEL-2 melanoma = test system: SK-MEL-2 melanoma
MOLT-4 leukemia = test system: MOLT-4 leukemia
ACHN renal = test system: ACHN renal
M14 melanoma = test system: M14 melanoma
RPMI-8226 leukemia = test system: RPMI-8226 leukemia
MDA-MB-435 = test system: MDA-MB-435
HCC-2998 colon = test system: HCC-2998 colon
T-47D breast = test system: T-47D breast
CCRF-CEM leukemia = test system: CCRF-CEM leukemia
COLO 205 colon = test system: COLO 205 colon
SW-620 colon = test system: SW-620 colon
UO-31 renal = test system: UO-31 renal
NCI-H226 lung = test system: NCI-H226 lung
SK-MEL-28 melanoma = test system: SK-MEL-28 melanoma
NCI-H460 lung = test system: NCI-H460 lung
SNB-75 CNS = test system: SNB-75 CNS
HCT-15 colon = test system: HCT-15 colon
BT-549 breast = test system: BT-549 breast
OVCAR-8 ovarian = test system: OVCAR-8 ovarian
NCI-H522 lung = test system: NCI-H522 lung
OVCAR-3 ovarian = test system: OVCAR-3 ovarian
HT29 colon = test system: HT29 colon
UACC-257 melanoma = test system: UACC-257 melanoma
K-562 leukemia = test system: K-562 leukemia
KM12 colon = test system: KM12 colon
SF-539 CNS = test system: SF-539 CNS
SN12C renal = test system: SN12C renal
IGROV1 ovarian = test system: IGROV1 ovarian
SK-OV-3 ovarian = test system: SK-OV-3 ovarian
HL-60(TB) leukemia = test system: HL-60(TB) leukemia
EKVX NSCLC = test system: EKVX NSCLC
SF-295 CNS = test system: SF-295 CNS
NCI/ADR-RES ovarian = test system: NCI/ADR-RES ovarian
HCT-116 colon = test system: HCT-116 colon
SF-268 CNS = test system: SF-268 CNS
HOP-92 NSCLC = test system: HOP-92 NSCLC
U251 CNS = test system: U251 CNS
OVCAR-5 ovarian = test system: OVCAR-5 ovarian
MDA-MB-231 breast = test system: MDA-MB-231 breast
HS 578T breast = test system: HS 578T breast
RXF 393 renal = test system: RXF 393 renal
A549 NSCLC = test system: A549 NSCLC
PC-3 prostate = test system: PC-3 prostate
786-0 renal = test system: 786-0 renal
A498 renal = test system: A498 renal
UACC-62 melanoma = test system: UACC-62 melanoma
SNB-19 CNS = test system: SNB-19 CNS
OVCAR-4 ovarian = test system: OVCAR-4 ovarian
CAKI-1 renal = test system: CAKI-1 renal
HOP-62 NSCLC = test system: HOP-62 NSCLC
SK-MEL-5 melanoma = test system: SK-MEL-5 melanoma
NCI-H23 lung = test system: NCI-H23 lung

CCn1c(-c2nonc2N)nc2c(C#CC(C)(C)O)ncc(OC[C@@H]3CCCN3)c21
GI50 (SR leukemia): 8.19 µM
TGI (SR leukemia): > 20.2 µM
GI50 (TK-10 renal): 1830 nM
TGI (TK-10 renal): > 21.8 µM
GI50 (MALME-3M melanoma): > 15.3 µM
TGI (MALME-3M melanoma): > 25 µM
GI50 (MCF7 breast): 1710 nM
TGI (MCF7 breast): 9.73 µM
GI50 (LOX IMVI melanoma): 5.5 µM
TGI (LOX IMVI melanoma): > 19.4 µM
GI50 (DU-145 prostate): 4.76 µM
TGI (DU-145 prostate): > 22.9 µM
GI50 (SK-MEL-2 melanoma): 4.56 µM
TGI (SK-MEL-2 melanoma): 15 µM
GI50 (MOLT-4 leukemia): 3.01 µM
TGI (MOLT-4 leukemia): > 25 µM
GI50 (ACHN renal): 8.76 µM
TGI (ACHN renal): > 25 µM
GI50 (M14 melanoma): 6.95 µM
TGI (M14 melanoma): > 25 µM
GI50 (RPMI-8226 leukemia): 24.8 µM
TGI (RPMI-8226 leukemia): > 25 µM
GI50 (MDA-MB-435): 11.6 µM
TGI (MDA-MB-435): > 25 µM
GI50 (HCC-2998 colon): 3.12 µM
TGI (HCC-2998 colon): > 25 µM
GI50 (T-47D breast): 408 nM
TGI (T-47D breast): > 25 µM
GI50 (CCRF-CEM leukemia): 2330 nM
TGI (CCRF-CEM leukemia): > 25 µM
GI50 (COLO 205 colon): 2940 nM
TGI (COLO 205 colon): 7.62 µM
GI50 (SW-620 colon): 6.84 µM
TGI (SW-620 colon): > 25 µM
GI50 (UO-31 renal): 13.4 µM
TGI (UO-31 renal): > 25 µM
GI50 (NCI-H226 lung): 8.27 µM
TGI (NCI-H226 lung): > 24 µM
GI50 (SK-MEL-28 melanoma): 12.1 µM
TGI (SK-MEL-28 melanoma): > 25 µM
GI50 (NCI-H460 lung): 4.51 µM
TGI (NCI-H460 lung): > 22.6 µM
GI50 (SNB-75 CNS): 942 nM
TGI (SNB-75 CNS): > 21.8 µM
GI50 (HCT-15 colon): > 25 µM
TGI (HCT-15 colon): > 25 µM
GI50 (BT-549 breast): 4.77 µM
TGI (BT-549 breast): > 22.8 µM
GI50 (OVCAR-8 ovarian): 6.4 µM
TGI (OVCAR-8 ovarian): > 25 µM
GI50 (NCI-H522 lung): 3.1 µM
TGI (NCI-H522 lung): 6.71 µM
GI50 (OVCAR-3 ovarian): 2860 nM
TGI (OVCAR-3 ovarian): 9.22 µM
GI50 (HT29 colon): 5.15 µM
TGI (HT29 colon): > 19.7 µM
GI50 (UACC-257 melanoma): > 25 µM
TGI (UACC-257 melanoma): > 25 µM
GI50 (K-562 leukemia): 9 µM
TGI (K-562 leukemia): > 25 µM
GI50 (KM12 colon): 2610 nM
TGI (KM12 colon): 18.5 µM
GI50 (SF-539 CNS): 1520 nM
TGI (SF-539 CNS): 15.8 µM
GI50 (SN12C renal): 5.26 µM
TGI (SN12C renal): > 25 µM
GI50 (IGROV1 ovarian): 676 nM
TGI (IGROV1 ovarian): > 25 µM
GI50 (SK-OV-3 ovarian): 968 nM
TGI (SK-OV-3 ovarian): > 19 µM
GI50 (HL-60(TB) leukemia): 5.63 µM
TGI (HL-60(TB) leukemia): 15 µM
GI50 (EKVX NSCLC): 11.7 µM
TGI (EKVX NSCLC): > 25 µM
GI50 (SF-295 CNS): 3.07 µM
TGI (SF-295 CNS): > 25 µM
GI50 (NCI/ADR-RES ovarian): > 25 µM
TGI (NCI/ADR-RES ovarian): > 25 µM
GI50 (HCT-116 colon): 5.34 µM
TGI (HCT-116 colon): 20.2 µM
GI50 (SF-268 CNS): 7.84 µM
TGI (SF-268 CNS): > 25 µM
GI50 (HOP-92 NSCLC): 14.5 µM
TGI (HOP-92 NSCLC): > 25 µM
GI50 (U251 CNS): 3.03 µM
TGI (U251 CNS): > 22 µM
GI50 (OVCAR-5 ovarian): 10.6 µM
TGI (OVCAR-5 ovarian): > 25 µM
GI50 (MDA-MB-231 breast): 7.46 µM
TGI (MDA-MB-231 breast): > 25 µM
GI50 (HS 578T breast): 1720 nM
TGI (HS 578T breast): > 19.5 µM
GI50 (RXF 393 renal): 189 nM
TGI (RXF 393 renal): 3.18 µM
GI50 (A549 NSCLC): 6.96 µM
TGI (A549 NSCLC): > 25 µM
GI50 (PC-3 prostate): 4.39 µM
TGI (PC-3 prostate): > 25 µM
GI50 (786-0 renal): 2450 nM
TGI (786-0 renal): > 25 µM
GI50 (A498 renal): 136 nM
TGI (A498 renal): 1970 nM
GI50 (UACC-62 melanoma): 7.2 µM
TGI (UACC-62 melanoma): > 25 µM
GI50 (SNB-19 CNS): 4.28 µM
TGI (SNB-19 CNS): > 25 µM
GI50 (OVCAR-4 ovarian): 8.88 µM
TGI (OVCAR-4 ovarian): > 25 µM
GI50 (CAKI-1 renal): > 25 µM
TGI (CAKI-1 renal): > 25 µM
GI50 (HOP-62 NSCLC): 7.07 µM
TGI (HOP-62 NSCLC): 24.9 µM
GI50 (SK-MEL-5 melanoma): 10.5 µM
TGI (SK-MEL-5 melanoma): > 25 µM
GI50 (NCI-H23 lung): 8.64 µM
TGI (NCI-H23 lung): > 25 µM
